According to patent publication US20030091980A1, “Detection and characterization of psychoactives using analysis of network level physiological responses in a neuronal sample” (priority 2001, published 2003):

What was measured:
Format in all cases: cell-based, Sprague-Dawley rat
hippocampal slice [1] = test: Network level evoked response to single pulse Schaffer commissural stimulation during carbachol-induced rhythms, multi-electrode dish
Text: (§1) Procedures for the preparation of the recently introduced Multi-Electrode Dish (Panasonic: MED probe) are described by Oka et al., J Neurosci Methods 93: 61-67 (1999). The device has an array of 64 planar microelectrodes, each having a size of 50×50 μm, arranged in an 8 by 8 pattern. Probes used in the experiments described below were medium arrays with 300 μm interelectrode spacing (Panasonic: MED-P530AP).
For sufficient adhesion of the slice to the probe, the surface of the MED probe was treated with 0.1% polyethylenimine (Sigma: P-3143) in 25 mM borate buffer, pH 8.4, for 8 hours at room temperature. The probe surface was rinsed 3 times with sterile distilled water. The probe (chamber) was then filled with DMEM/F-12 mixed medium, containing 10% fetal bovine serum (GIBCO: 16141-079) and 10% horse serum (GIBCO: 16050-122), for at least 1 hour at 37° C. DMEM/F-12 mixed medium is a 1:1 mixture of Dulbecco's Modified Eagle's Medium and Ham's F-12 (GIBCO: D/F-12 medium, 12400-024), supplemented with N2 supplement (GIBCO: 17502-014) and hydrocortisone (20 nM, Sigma, H0888).
(§2) A 17-25 day old Sprague-Dawley rat was sacrificed by decapitation after anesthesia using halothane (2-Bromo-2-chloro-1,1,1-trifluoroethane, Sigma: B4388), and the whole brain was removed. The brain was immediately soaked in ice-cold, oxygenated preparation buffer of the following composition (in mM): 124 NaCl, 26 NaHCO3, 10 glucose, 3 KCl, 1.25 NaH2PO4, 1.5 CaCl2, 0.5 MgSO4, for approximately 2 minutes. Appropriate portions of the brain were trimmed and placed on the ice-cold stage of a vibrating tissue slicer (Leica: VT-1000S). The stage was immediately filled with both oxygenated and frozen preparation buffers. The thickness of each tissue slice was 350 μm. Each slice was gently taken off the blade using a blunt-end pipette, and immediately soaked in oxygenated preparation buffer for at least 1 hour at room temperature. A slice was then placed on the center of the MED probe, positioned to cover the 8×8 array. After positioning the slice, the MED probe was placed directly in a box filled with 95% O2 and 5% CO2 and allowed to recover and adhere at 32° C. for 1 hour.
(§3) During electrophysiological recording, the slices on the MED probe were placed in a small CO2 incubator (Yamato: model IC400) at 32° C. The slices remained on the MED probe, which was attached to a recording interface, and a moisturized 95% O2 and 5% CO2 gas mixture was blown from above. In this condition, responses were recorded for more than 2 hours.
Carbachol was obtained from Sigma. […]
(§4) Spontaneous and evoked field potentials at all 64 sites were recorded simultaneously with the multi-channel recording system (Panasonic: MED64 system) at a 20 kHz sampling rate. […]

hippocampal slice [2] = test: Evoked responses following Schaffer collateral stimulation in presence and absence of carbachol (field potentials, current source density)
Procedure: as §2, §3
Carbachol was obtained from Sigma. A carbachol solution was applied to the neuronal samples at known concentrations of either 25 or 50 μM. The lower concentration was used in all except two cases. […] Carbachol solutions were prepared daily from frozen aliquots.
Spontaneous and evoked field potentials at all 64 sites were recorded simultaneously with the multi-channel recording system (Panasonic: MED64 system) at a 20 kHz sampling rate. In the case of the evoked response, one or more than two microelectrodes out of the 64 available were chosen for stimulating. Bipolar constant current pulses (20 to 40 μA, 0.1 msec) were produced by the data acquisition software through the isolator. The stimulating microelectrodes were selected by the 64 switchbox.
The method of continuous, two-dimensional current source density employed has been previously described (Shimono et al., supra). The 2-dimensional array of electrodes allows for simultaneous estimation of current flows in any direction within the plane of the slice. The data was low-pass filtered at 100 Hz and spatially smoothed by a 3×3-weighted average kernel (0 1/8 0, 1/8 1/2 1/8, and 0 1/8 0). […] A limitation of the technique is that only large spatial patterns, with radii≧one-half of the interelectrode distance, can be accurately resolved. Additionally, low-pass filtering removes high-frequency data, limiting the amount of fine detail that can be observed.

hippocampal slice [3] = test: Carbachol-induced beta rhythms in hippocampal tissue (64-electrode recording, FFT); conditions: FIG. 2
Text: as §1
A 17-25 day old Sprague-Dawley rat was sacrificed by decapitation after anesthesia using halothane (2-Bromo-2-chloro-1,1,1-trifluoroethane, Sigma: B4388), and the whole brain was removed. The brain was immediately soaked in ice-cold, oxygenated preparation buffer of the following composition (in mM): 124 NaCl, 26 NaHCO3, 10 glucose, 3 KCl, 1.25 NaH2PO4, 1.5 CaCl2, 0.5 MgSO4, for approximately 2 minutes. Appropriate portions of the brain were trimmed and placed on the ice-cold stage of a vibrating tissue slicer (Leica: VT-1000S). […]
During electrophysiological recording, the slices on the MED probe were placed in a small CO2 incubator (Yamato: model IC400) at 32° C. […] In this condition, responses were recorded for more than 2 hours. […]
as §4

[4] = 100 μM heptachlor, Schaffer commissural stimulation, FIG. 8
[5] = CA1 apical dendrites, presence of carbachol
[6] = single pulse stimulation with carbachol, eight slices

| SMILES | depolarizing phase of the slow component of the waveform (hippocampal slice [1]; 100 μM heptachlor, FIG. 8) | fast component, corresponding to the traditional evoked response (hippocampal slice [1]; [4]) | slow component of the network complex evoked response (hippocampal slice [1]; [4]) | network level evoked response to single pulse Schaffer commissural stimulation upon infusion (hippocampal slice [1]; figure legends FIGS. 8-11) | intensity of activity (current source density) (hippocampal slice [2]; 25 μM carbachol vs without carbachol, 10 ms after stimulation) | spread of activity (current source density) (hippocampal slice [2]; 25 μM carbachol vs without carbachol, 10 ms after stimulation, particularly field CA3) | start of slow negative going component after stimulation (hippocampal slice [2]; [5]) | start of slow negative going component after the initial response (hippocampal slice [2]; [5]) | return to baseline after stimulation (hippocampal slice [2]; CA1 stratum radiatum and oriens, carbachol-induced beta waves, FIG. 4) | return to baseline of positive-going potential (hippocampal slice [2]; CA3 basal dendritic field, carbachol-driven beta rhythms, FIG. 5) | stimulation trials eliciting a sustained network response (hippocampal slice [2]; Schaffer collateral stimulation in the presence of cholinergic rhythms) | frequency of bursts of spikes accompanying the first carbachol dependent slow potential (hippocampal slice [2]; field CA3) | recordings with responses similar to the control responses (hippocampal slice [2]; [6]) | traces with bursts of spikes in CA3 stratum pyramidale and prominent after potentials in CA1 and CA3 (hippocampal slice [2]; [6]) | dominant frequency of rhythms (normalized power spectra, all 64 electrodes) (hippocampal slice [3]; 25 μM carbachol) | stability of rhythms (hippocampal slice [3]; after carbachol infusion) |
| --- | --- | --- | --- | --- | --- | --- | --- | --- | --- | --- | --- | --- | --- | --- | --- | --- |
| ClC1=C(Cl)C2(Cl)C3C(Cl)C=CC3C1(Cl)C2(Cl)Cl (stereo not shown) [heptachlor] | complete elimination | not changed | changed dramatically | changes | – | – | – | – | – | – | – | – | – | – | – | – |
| C[N+](C)(C)CCOC(N)=O [carbachol] | – | – | – | – | markedly increased | far greater | 25 ms | about 10 msec | 140 ms | approximately 125 ms | approximately 70% | 100-200 Hz | 16 of 53 | 37 of 53 | in the beta range | stable for over two hours |
